What was measured:
ccRCC = ccRCC clinical trial, overall survival by speckle signature, nivolumab versus everolimus; assay type: in vivo, human; settings: nivolumab arm versus everolimus arm
From the text: Without wishing to be bound by theory, it is envisioned that having both RNA- and imaging-based methods for measuring speckle phenotypes will assist in the development of cancer- and patient-specific treatment strategies. As a proof-of-concept for a potential use of nuclear speckle phenotyping, a series of studies was undertaken in which speckle signature was correlated with tumor/patient drug response in available data from a human clinical trial and patient-derived mouse xenograft studies.
Thus, contrasting with HIF-2a inhibition, PD1 inhibition may have a greater impact in individuals with Signature II tumors.
Methods for determining speckle signature and TCGA survival analysis. Four-hundred and forty-six protein genes annotated as “Enhanced”, “Supported”, or “Approved” for subcellular localization within nuclear speckles were identified in The Human Protein Atlas and their upper-quartile normalized RNA expression was extracted from the 30 PanCan TCGA projects that had greater than 50 samples. Principal Component Analysis was then performed on these 446 speckle protein genes. In doing so, each speckle protein gene was assigned a weight (called rotation in the analysis) that was used in the analysis to separate tumor sample along the first Principal Component (PC1). The absolute value of a speckle protein gene PC1 weight thus estimates the contribution of each speckle protein gene to patient variation and the PC1 weight sign, positive or negative, reflects genes that have opposite expression patterns to one another. To compare speckle protein gene expression contributions to patient variation between cancer types, the pairwise Pearson's correlation coefficients of the speckle protein PC1 weights were used. In order to obtain a set of speckle protein genes that consistently contributed to patient variation in many cancer types, the rotation signs were flipped so that the speckle protein gene, SON, was always assigned a negative weight. […] Speckle score was then used to separate samples into groups for Kaplan Meier and gene expression analysis between the two groups. With collected ccRCC samples and published drug response studies, speckle scores were calculated using the above formula. In drug-response data (related to FIG. 52), samples with positive speckle scores were considered speckle Signature I and samples with negative speckle scores were considered speckle Signature II. Then differences in drug responses were calculated using a Fisher's exact test (FIG. 53) or Kaplan Meier statistics (FIG. 54).

[1] = tested on: patient-derived mouse xenograft tumors; assay: Speckle signature versus PT2399 sensitivity of patient-derived mouse xenograft ccRCC tumors; assay type: in vivo
Procedure: Methods for determining speckle signature and TCGA survival analysis. Four-hundred and forty-six protein genes annotated as “Enhanced”, “Supported”, or “Approved” for subcellular localization within nuclear speckles were identified in The Human Protein Atlas and their upper-quartile normalized RNA expression was extracted from the 30 PanCan TCGA projects that had greater than 50 samples. Principal Component Analysis was then performed on these 446 speckle protein genes. In doing so, each speckle protein gene was assigned a weight (called rotation in the analysis) that was used in the analysis to separate tumor sample along the first Principal Component (PC1). The absolute value of a speckle protein gene PC1 weight thus estimates the contribution of each speckle protein gene to patient variation and the PC1 weight sign, positive or negative, reflects genes that have opposite expression patterns to one another. To compare speckle protein gene expression contributions to patient variation between cancer types, the pairwise Pearson's correlation coefficients of the speckle protein PC1 weights were used. […] With collected ccRCC samples and published drug response studies, speckle scores were calculated using the above formula. […] Then differences in drug responses were calculated using a Fisher's exact test (FIG. 53) or Kaplan Meier statistics (FIG. 54).

HeLa cells = assay type: cell-based

Row | Compound | overall survival, Signature I patients (ccRCC) | overall survival probability, Signature II patients (ccRCC) | fraction of Signature II tumors sensitive to PT2399 ([1]; xenograft tumors with negative speckle score (Signature II)) [%] | fraction of Signature I tumors sensitive to PT2399 ([1]; xenograft tumors with positive speckle score (Signature I)) [%] | speckle association of the CCND1 gene locus (HeLa cells)
1 | nivolumab | did not differ in overall survival between the two treatment groups | higher overall survival probability when treated with nivolumab compared to everolimus |  |  | 
2 | N#Cc1cc(F)cc(Oc2ccc(S(=O)(=O)C(F)F)c3c2CC(F)(F)[C@H]3O)c1 [PT2399] |  |  | ~30 | ~75 | 
3 | CO[C@H]1C[C@@H]2CC[C@@H](C)[C@@](O)(O2)C(=O)C(=O)N2CCCC[C@H]2C(=O)O[C@H]([C@H](C)C[C@@H]2CC[C@@H](OCCO)[C@H](OC)C2)CC(=O)[C@H](C)/C=C(\C)[C@@H](O)[C@@H](OC)C(=O)[C@H](C)C[C@H](C)/C=C/C=C/C=C/1C [everolimus] | did not differ in overall survival between the two treatment groups | higher overall survival probability when treated with nivolumab compared to everolimus |  |  | 
4 | [Cl-].[Cl-].[Co+2] [CoCl2] |  |  |  |  | increased speckle association of the CCND1 gene locus
